{"source": "paper PMC6522510", "about": "(Nature Communications, 2019)", "key": {"MOLM-13": {"tested_on": "MOLM-13", "assay": "Secondary dose-response HTS, Cell Titer Glo", "assay_type": "cell-based, human", "conditions": "Homo sapiens, MOLM-13"}, "CHRF288-11 [1]": {"tested_on": "CHRF288-11", "assay": "Secondary dose-response HTS, Cell Titer Glo", "assay_type": "cell-based, human", "conditions": "Homo sapiens; secondary HTS, 72 h, average of triplicate; read-out: EC50 CHRF288-11"}, "CMS": {"tested_on": "CMS", "assay": "Secondary dose-response HTS, Cell Titer Glo", "assay_type": "cell-based, human", "conditions": "Homo sapiens; secondary HTS, 72 h, average of triplicate; read-out: EC50 CMS"}, "ML2": {"tested_on": "ML2", "assay": "Secondary dose-response HTS, Cell Titer Glo", "assay_type": "cell-based, human", "conditions": "Homo sapiens, ML-2"}, "CHRF288-11 [2]": {"tested_on": "CHRF288-11", "assay_type": "cell-based", "conditions": "Homo sapiens; 72 h, Cell Titer Glo; read-out: IC50 CHRF288-11"}, "MV4-11 [3]": {"tested_on": "MV4-11", "assay_type": "cell-based", "conditions": "Homo sapiens, 72 h, Cell Titer Glo"}, "THP-1": {"tested_on": "THP-1", "assay_type": "cell-based", "conditions": "Homo sapiens, 72 h, Cell Titer Glo"}, "[4]": {"tested_on": "CBFA2T3-GLIS2/JAK2V617F-induced AMKL model", "assay": "In vivo efficacy, survival", "parameters": "species or system mice", "conditions": "CBFA2T3-GLIS2/JAK2V617F-Luc+ quaternary transplants, i.p."}, "MV4-11 [5]": {"tested_on": "MV4-11", "assay": "cells", "parameters": "species or system AML cell lines (8); Secondary HTS, 10-point dose-response in triplicate, Cell Titer Glo viability, four-parameter fit EC50", "conditions": "Homo sapiens, MV4-11, 72 h, read-out: MV4-11"}, "U937": {"tested_on": "U937", "assay": "cells", "parameters": "species or system AML cell lines (8); Secondary HTS, 10-point dose-response in triplicate, Cell Titer Glo viability, four-parameter fit EC50", "conditions": "Homo sapiens, U-937, 72 h, read-out: U937"}}, "note": "Where two headings read alike, the source gives them in different places.", "data": [{"compound": "Nc1ccn([C@@H]2O[C@H](CO)[C@@H](O)C2(F)F)c(=O)n1", "note": "[Gemcitabine, gemcitabine]", "values": [{"measurement": "EC50", "setting": "MOLM-13; secondary HTS, 72 h, average of triplicate, read-out: EC50 MOLM-13", "result": 3, "unit": "nM"}, {"measurement": "EC50", "setting": "MOLM-13; secondary high-throughput screen, read-out: average effective concentration, MOLM-13", "result": 2.73, "unit": "nM"}, {"measurement": "EC50", "setting": "CHRF288-11 [1]", "result": 3, "unit": "nM"}, {"measurement": "EC50", "setting": "CMS", "result": 30, "unit": "nM"}, {"measurement": "EC50", "setting": "ML2; secondary HTS, 72 h, average of triplicate, read-out: EC50 ML2", "result": 2, "unit": "nM"}, {"measurement": "EC50", "setting": "ML2; secondary high-throughput screen, read-out: average effective concentration, ML-2", "result": 1.7, "unit": "nM"}, {"measurement": "IC50", "setting": "CHRF288-11 [2]", "result": 0.4, "unit": "nM"}, {"measurement": "IC50", "setting": "MV4-11 [3]", "result": 3.2, "unit": "nM"}, {"measurement": "IC50", "setting": "THP-1", "result": 3.5, "unit": "nM"}, {"measurement": "Median survival", "setting": "[4]; 3 mg kg−1 daily x 5 days", "result": 91, "unit": "days"}, {"measurement": "Median survival", "setting": "[4]; 120 mg kg−1 q3d", "result": "> 125", "unit": "days"}, {"measurement": "EC50", "setting": "MV4-11 [5]", "result": 2.1, "unit": "nM"}, {"measurement": "EC50", "setting": "U937", "result": 7.73, "unit": "nM"}]}]}
